Laboratory results published in paper doi:10.1101/2022.02.23.481635v1 (biorxiv, 2022).

Key:
Type in all cases: binding
14-3-3/ABL1 complex = 14-3-3/ABL1 complex (Homo sapiens, UniProt P00519+P31947); assay: STD NMR dose response
14-3-3σ/TAZ complex [1] = target: T1, 14-3-3σ/TAZ complex (Homo sapiens, UniProt P31947+Q9GZV5); assay: STD NMR dose response
14-3-3σ/TAZ complex [2] = target: T1, 14-3-3σ/TAZ complex; assay: STD NMR; conditions: 300 μM fragment, 10 μM 14-3-3σ, 100 μM TAZ peptide, relative to apo-14-3-3σ

T1 sequence (P31947 whole entry, other chains not shown, the tested form may be a part): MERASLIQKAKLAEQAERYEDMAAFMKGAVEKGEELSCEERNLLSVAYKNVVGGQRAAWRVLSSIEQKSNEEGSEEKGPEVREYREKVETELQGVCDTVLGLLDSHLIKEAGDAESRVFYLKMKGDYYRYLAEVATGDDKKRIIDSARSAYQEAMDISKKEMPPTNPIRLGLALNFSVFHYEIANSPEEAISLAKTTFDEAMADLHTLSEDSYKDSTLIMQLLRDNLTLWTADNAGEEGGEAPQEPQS
14-3-3/ABL1 complex, sequence (P31947 whole entry, other chains not shown): as the sequence (P31947 whole entry, other chains not shown, the tested form may be a part) above

Compound | EC50 (14-3-3/ABL1 complex) [mM] | EC50 (14-3-3σ/TAZ complex [1]) [mM] | fold STD signal (I+peptide / I-peptide) (14-3-3σ/TAZ complex [2]) [fold]
COC(=O)c1cccc(C(=N)N)c1 [F5] | 8.7 ± 0.4 | 1.8 ± 0.4 | 
CCN1CCN(c2cc(C(=N)N)ccn2)CC1 [F4] |  |  | 1.9
N=C(N)c1cc2ccccc2o1 [F9] |  | 2.3 ± 0.3 | 
